Results from ChEMBL document CHEMBL2375267, “A comprehensive review on synthesis and designing aspects of coumarin derivatives as monoamine oxidase inhibitors for depression and Alzheimer's disease” (Bioorg Med Chem, 2013).

How the values were obtained:
[1] = target: T1, Amine oxidase [flavin-containing] B (Mus musculus, UniProt Q8BW75); test: Inhibition of mouse brain MAO-B
T1 sequence (Q8BW75 whole entry): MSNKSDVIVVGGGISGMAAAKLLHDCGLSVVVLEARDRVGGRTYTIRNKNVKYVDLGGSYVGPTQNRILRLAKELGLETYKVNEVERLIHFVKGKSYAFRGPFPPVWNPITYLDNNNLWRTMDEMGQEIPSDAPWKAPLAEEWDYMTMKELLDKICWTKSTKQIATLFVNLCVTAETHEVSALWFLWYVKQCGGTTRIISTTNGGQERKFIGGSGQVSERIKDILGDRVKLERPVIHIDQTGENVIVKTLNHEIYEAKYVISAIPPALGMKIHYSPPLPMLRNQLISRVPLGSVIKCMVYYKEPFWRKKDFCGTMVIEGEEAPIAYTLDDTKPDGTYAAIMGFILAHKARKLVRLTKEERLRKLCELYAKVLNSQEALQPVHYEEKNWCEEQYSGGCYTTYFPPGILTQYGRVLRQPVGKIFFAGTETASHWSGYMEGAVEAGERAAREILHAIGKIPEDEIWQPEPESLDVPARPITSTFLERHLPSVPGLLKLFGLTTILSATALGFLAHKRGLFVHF

[2] = target: T2, Amine oxidase [flavin-containing] A (Mus musculus, UniProt Q64133); test: Inhibition of mouse brain MAO-A
T2 sequence (Q64133 whole entry): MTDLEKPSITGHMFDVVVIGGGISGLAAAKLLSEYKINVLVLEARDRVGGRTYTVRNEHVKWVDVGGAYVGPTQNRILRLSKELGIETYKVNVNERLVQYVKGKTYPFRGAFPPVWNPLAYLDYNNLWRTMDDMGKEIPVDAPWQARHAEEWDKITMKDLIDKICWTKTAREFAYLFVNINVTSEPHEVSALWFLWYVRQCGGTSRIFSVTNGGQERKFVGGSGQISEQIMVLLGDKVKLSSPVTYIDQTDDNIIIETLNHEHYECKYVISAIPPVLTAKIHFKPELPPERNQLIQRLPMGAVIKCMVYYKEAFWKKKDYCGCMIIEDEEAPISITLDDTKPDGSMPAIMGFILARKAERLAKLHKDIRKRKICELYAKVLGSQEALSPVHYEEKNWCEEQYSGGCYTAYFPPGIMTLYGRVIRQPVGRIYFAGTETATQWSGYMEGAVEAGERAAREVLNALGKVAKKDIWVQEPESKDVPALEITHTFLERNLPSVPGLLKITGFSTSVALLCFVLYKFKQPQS

[3] = Inhibition of mouse brain monoamine oxidase
[4] = target: T3, Amine oxidase [flavin-containing] B (Homo sapiens, UniProt P27338); test: Inhibition of MAO-B (unknown origin)
T3 sequence (P27338 whole entry): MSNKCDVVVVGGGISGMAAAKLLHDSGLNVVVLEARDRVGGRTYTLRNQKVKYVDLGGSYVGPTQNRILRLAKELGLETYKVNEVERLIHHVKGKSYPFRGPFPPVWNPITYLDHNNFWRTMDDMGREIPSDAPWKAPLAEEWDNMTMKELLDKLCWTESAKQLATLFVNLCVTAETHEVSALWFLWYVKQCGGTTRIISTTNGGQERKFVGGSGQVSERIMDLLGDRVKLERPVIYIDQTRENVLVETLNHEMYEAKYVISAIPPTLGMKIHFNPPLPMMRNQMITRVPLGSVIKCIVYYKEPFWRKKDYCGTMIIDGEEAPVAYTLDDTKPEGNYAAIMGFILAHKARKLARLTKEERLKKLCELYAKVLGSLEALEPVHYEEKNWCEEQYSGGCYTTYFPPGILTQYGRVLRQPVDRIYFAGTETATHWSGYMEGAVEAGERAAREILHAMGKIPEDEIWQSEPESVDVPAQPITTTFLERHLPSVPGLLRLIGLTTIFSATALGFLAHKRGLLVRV

[5] = species: Homo sapiens; test: Selectivity index, ratio of pIC50 for MAO-B (unknown origin) to pIC50 for MAO-A (unknown origin)
[6] = species: Homo sapiens; test: Selectivity ratio for MAO-A (unknown origin) over MAO-B (unknown origin)
[7] = target: T4, Amine oxidase [flavin-containing] A (Homo sapiens, UniProt P21397); test: Inhibition of MAO-A (unknown origin)
T4 sequence (P21397 whole entry): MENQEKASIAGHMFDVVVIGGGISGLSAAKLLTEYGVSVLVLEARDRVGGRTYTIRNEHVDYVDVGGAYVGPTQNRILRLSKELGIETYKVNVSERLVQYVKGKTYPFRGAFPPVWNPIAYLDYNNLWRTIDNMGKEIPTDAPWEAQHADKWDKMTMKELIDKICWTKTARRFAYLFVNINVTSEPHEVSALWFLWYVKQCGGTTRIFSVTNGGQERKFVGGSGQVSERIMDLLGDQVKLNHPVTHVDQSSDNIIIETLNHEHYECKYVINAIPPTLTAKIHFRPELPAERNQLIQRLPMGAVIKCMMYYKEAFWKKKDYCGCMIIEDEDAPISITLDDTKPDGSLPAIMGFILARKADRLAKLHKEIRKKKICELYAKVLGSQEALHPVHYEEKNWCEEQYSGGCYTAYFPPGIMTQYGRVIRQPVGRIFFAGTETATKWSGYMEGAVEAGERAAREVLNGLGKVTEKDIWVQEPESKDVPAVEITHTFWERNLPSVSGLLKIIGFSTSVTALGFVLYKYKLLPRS

[8] = Inhibition of mouse brain monoamine oxidase using kynuramine as substrate by fluorometric analysis

## C=C(C)[C@H](O)CC/C(C)=C/COc1ccc2ccc(=O)oc2c1
[1]
  IC50: 0.5 µM
[2]
  IC50: 1300 nM
[3]
  IC50: 0.7 µM

## O=C(Cl)c1cc2cc(Cl)ccc2oc1=O
[4]
  IC50: 0.01 µM

## C/C=C(/C)C(=O)O[C@H]1[C@@H](OC(C)=O)c2c(ccc3ccc(=O)oc23)OC1(C)C
[3]
  IC50: 27.4 µM

## CC(C)=CCC/C(C)=C/COc1ccc2ccc(=O)oc2c1
[1]
  IC50: 0.6 µM
[2]
  IC50: 0.0346 nM
[3]
  IC50: 1.7 µM

## Cc1ccc2oc(=O)c(C(=O)O)cc2c1
[5]
  Ratio pIC50: 2.8
[4]
  IC50: 0.0191 µM

## CC1(C)OC(/C=C/COc2ccc3ccc(=O)oc3c2)=CC1=O
[6]
  Selectivity ratio: 850

## COc1c2ccoc2cc2oc(=O)ccc12 [BERGAPTEN]
[7]
  IC50: 13.8 µM
[3]
  IC50: 13.8 µM

## O=C(O)c1cc2ccccc2oc1=O [COUMARIN-3-CARBOXYLIC ACID]
[5]
  Ratio pIC50: 2.94
[4]
  IC50: 0.0174 µM

## O=c1ccc2cc(O)c(O)cc2o1 [ESCULETIN]
[8]
  IC50: 31.1 µM

## COc1cc2oc(=O)ccc2cc1O [ISOSCOPOLETIN]
[8]
  IC50: 32.2 µM

## COc1c(OCC=C(C)C)ccc2ccc(=O)oc12 [LACINARTIN]
[1]
  IC50: 28.6 µM
[2]
  IC50: 5700 nM
[3]
  IC50: 9.2 µM

## O=c1ccc2cc3ccoc3cc2o1 [PSORALEN]
[7]
  IC50: 21.3 µM
[3]
  IC50: 35.8 µM

## COc1cc2ccc(=O)oc2cc1O [SCOPOLETIN]
[8]
  IC50: 45 µM
